Measured values taken from US12187742B2 (XRAD Therapeutics, Inc., priority 2018, dated 2025).
Where a name gives a salt, the structure may show the parent alone.

Columns and labels:
[1] = biological target: ATM (Homo sapiens (Human), UniProt Q13315); assay: ATM in Cell Western Assay (pKAP1 in etoposide-treated MCF-7 cells); format: cell-based
How it was run: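 Cells received compounds in a 10-dose, 3-fold series from a 1 μM final top concentration, then 100 μM etoposide, for 1 hr at 37° C. They were then fixed with paraformaldehyde and permeabilized with 0.1% Triton X-100. After immunostaining, plates were scanned on an infrared imager.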

[2] = biological target: DNA-PK (Homo sapiens (Human), UniProt P78527); assay: DNA-PK Enzyme-Linked Immunosorbent Assay (phosphorylation of GST-p53 (1-101) peptide); format: biochemical; conditions: ELISA
Description: Assay of Compounds ATM and DNA-PK Inhibition
remove wash solution, turn plate upside down onto a thin paper towel and centrifuge at 1000 rpm for 1 min to absorb all wash buffer. Clean the bottom of plate with moist lint free paper. Scan plate immediately using ODYSSEY CLx (LI-COR) for the best results. DNA-PK Enzyme-Linked Immunosorbent Assay:
On day one, coat 96-well plate (ThermoFisher. Cat #: 442404) with GST-p53 (1-101) peptide (purified by Pharmaron, BCS department) by diluting 3 μg of GST-p53 each well with 0.1 M Na2CO3/NaHCO3, pH 9.6. Incubate the plate overnight at 4° C. The second day, remove coating buffer, wash 2× with PBST (1×PBS containing 0.1% Tween-20). Then add DNA-PK enzyme solution (Invitrogen, #PR9107A; the final DNA-PK concentration is 0.1 μg/mL), series dilution compounds (the final top concentration is 100 nM, 3 fold series dilution, with total 10 doses) and ATP solution (the final ATP concentration is 20 μM) to the 96-well plate. Incubate the plate at 25° C. for 1 hour. Then wash 3× with PBST (1×PBS containing 0.1% Tween-20). Block the plate with PBST+ 1% BSA at 4° C. overnight. The third day, wash 4× with PBST (1×PBS containing 0.1% Tween-20). Then add Phospho-p53 primary antibody (cell signaling Technology, #9286, Phospho-p53 (Ser15) (16G8) Mouse mAb) (1/1000) to each well. Seal with plate and incubate the plate for 1 h at 37° C. Wash 4× with PBST (1×PBS containing 0.1% Tween-20), add 100 μL of HRP-linked secondary antibody (Cell signaling Technology, #7076, Anti-mouse IgG, HRP-linked Antibody) (1/1000) to each well. Seal with tape and incubate the plate for 30 min at 37° C. Wash 4× with PBST (1×PBS containing 0.1% Tween-20), add 100 μL of TMB (Cell signaling Technology, #7004) substrate to each well. Seal with tape and incubate the plate for 10 min at 37° C. Then add 100 μL of Stop solution (Cell signaling Technology, #7002) to each well. Read the plate at 450 nm to detect absorption.

[3] = pKAP1 in etoposide-treated MCF-7 cells
[4] = MCF-7 cells, etoposide 100 μM, 1 hr, pKAP1 readout

Chain of ATM (Q13315 whole entry): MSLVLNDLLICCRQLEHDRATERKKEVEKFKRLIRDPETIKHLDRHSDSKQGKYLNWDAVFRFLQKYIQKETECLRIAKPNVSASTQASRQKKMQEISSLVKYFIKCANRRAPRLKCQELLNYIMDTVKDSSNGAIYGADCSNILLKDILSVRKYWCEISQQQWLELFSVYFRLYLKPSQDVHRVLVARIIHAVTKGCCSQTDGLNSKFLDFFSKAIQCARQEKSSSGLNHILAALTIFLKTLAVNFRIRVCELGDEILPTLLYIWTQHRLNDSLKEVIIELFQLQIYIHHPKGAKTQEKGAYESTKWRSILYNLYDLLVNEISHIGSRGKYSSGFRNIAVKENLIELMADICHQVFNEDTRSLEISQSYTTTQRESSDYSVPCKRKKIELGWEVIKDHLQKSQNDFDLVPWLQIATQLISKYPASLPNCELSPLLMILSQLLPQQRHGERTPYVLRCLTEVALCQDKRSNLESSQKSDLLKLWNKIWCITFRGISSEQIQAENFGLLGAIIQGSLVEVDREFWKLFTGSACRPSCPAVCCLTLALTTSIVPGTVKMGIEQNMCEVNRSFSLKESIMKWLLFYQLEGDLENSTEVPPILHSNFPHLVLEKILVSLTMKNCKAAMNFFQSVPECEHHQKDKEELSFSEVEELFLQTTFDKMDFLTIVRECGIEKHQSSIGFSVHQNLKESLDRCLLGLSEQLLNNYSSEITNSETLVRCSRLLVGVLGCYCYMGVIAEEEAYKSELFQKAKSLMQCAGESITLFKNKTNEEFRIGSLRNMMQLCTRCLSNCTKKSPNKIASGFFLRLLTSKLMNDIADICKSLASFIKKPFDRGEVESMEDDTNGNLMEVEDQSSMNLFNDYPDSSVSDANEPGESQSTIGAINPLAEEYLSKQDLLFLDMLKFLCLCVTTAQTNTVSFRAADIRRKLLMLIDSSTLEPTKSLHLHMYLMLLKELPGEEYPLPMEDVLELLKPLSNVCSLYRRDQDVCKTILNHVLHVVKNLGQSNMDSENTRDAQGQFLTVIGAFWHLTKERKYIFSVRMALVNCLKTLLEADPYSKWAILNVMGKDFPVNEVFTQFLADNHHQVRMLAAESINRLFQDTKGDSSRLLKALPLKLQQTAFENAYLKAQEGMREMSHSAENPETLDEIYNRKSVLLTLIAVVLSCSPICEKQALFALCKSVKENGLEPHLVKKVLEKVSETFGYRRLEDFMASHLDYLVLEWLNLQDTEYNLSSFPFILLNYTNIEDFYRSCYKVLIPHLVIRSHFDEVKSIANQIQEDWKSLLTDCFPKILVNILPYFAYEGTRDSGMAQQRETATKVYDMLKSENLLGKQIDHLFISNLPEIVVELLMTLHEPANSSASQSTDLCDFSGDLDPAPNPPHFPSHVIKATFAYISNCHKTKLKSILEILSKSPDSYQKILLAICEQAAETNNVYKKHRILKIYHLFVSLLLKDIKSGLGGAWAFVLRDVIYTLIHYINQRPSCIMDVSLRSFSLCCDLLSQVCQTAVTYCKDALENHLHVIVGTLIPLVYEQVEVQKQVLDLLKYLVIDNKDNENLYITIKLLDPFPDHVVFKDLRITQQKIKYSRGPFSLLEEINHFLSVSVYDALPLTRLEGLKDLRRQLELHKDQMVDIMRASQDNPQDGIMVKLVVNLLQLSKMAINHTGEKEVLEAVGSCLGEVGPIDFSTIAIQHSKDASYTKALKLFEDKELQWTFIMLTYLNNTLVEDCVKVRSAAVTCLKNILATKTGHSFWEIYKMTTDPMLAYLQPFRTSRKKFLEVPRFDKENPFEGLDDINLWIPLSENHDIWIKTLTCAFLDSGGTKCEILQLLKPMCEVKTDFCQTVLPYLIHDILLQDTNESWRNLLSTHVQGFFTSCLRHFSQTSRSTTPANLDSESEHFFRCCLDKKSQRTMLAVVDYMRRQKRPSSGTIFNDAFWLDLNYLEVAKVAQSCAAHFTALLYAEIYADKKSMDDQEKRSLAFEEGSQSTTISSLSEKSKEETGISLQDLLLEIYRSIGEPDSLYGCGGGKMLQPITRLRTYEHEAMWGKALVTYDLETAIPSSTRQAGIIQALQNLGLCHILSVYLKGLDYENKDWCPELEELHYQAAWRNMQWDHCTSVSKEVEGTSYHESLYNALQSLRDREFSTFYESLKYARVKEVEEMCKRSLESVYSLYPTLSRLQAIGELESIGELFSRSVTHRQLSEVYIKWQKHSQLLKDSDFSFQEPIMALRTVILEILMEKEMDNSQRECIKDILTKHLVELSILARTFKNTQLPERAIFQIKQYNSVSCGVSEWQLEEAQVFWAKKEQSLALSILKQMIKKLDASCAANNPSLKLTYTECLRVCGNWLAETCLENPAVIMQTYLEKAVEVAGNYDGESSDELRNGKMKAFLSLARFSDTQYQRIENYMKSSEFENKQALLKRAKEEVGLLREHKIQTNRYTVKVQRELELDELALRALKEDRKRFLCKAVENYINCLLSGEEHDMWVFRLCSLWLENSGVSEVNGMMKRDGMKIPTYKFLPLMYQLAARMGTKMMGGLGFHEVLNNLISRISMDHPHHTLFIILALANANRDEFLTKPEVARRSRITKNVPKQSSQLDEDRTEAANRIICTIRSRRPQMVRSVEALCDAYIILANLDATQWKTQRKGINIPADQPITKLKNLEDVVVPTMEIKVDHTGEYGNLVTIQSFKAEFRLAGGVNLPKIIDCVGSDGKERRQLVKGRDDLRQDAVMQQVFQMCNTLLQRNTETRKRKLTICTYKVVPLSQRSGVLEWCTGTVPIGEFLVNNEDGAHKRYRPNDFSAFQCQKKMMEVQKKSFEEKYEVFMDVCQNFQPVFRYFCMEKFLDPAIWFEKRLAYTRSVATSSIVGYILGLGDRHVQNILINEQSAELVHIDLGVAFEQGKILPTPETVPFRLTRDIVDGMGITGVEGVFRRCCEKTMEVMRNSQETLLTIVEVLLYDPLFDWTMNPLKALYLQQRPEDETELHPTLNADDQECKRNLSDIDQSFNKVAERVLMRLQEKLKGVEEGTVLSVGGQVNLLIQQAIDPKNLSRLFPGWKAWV

CC(C)NCCOc1ncc(-c2cc3c4c(cnc3cc2F)N(C)C(=O)C42CN(c3ccccc3Cl)C2)cc1NS(C)(=O)=O [Example 525, N-(5-(1-(2-Chlorophenyl)-7′ fluoro-3′-methyl-2′-oxo-2′,3′-dihydrospiro[azetidine-3,1′-pyrrolo[2,3-c]quinolin]-8′-yl)-2-(2-(isopropylamino)ethoxy)pyridin-3-yl)methanesulfonamide] showed an IC50 [1, 3] of 1 to 100 nM and an IC50 ([2]; 20 μM ATP) of 0.5 to 1 nM.

CN(C)CCCOc1ncc(-c2ccc3ncc4c(c3c2)C2(CCC2)C(=O)N4C)cc1NS(=O)(=O)c1ccc(S(F)(F)(F)(F)F)cc1 [Example 134, N-(2-(3-(Dimethylamino)propoxy)-5-(3′-methyl-2′-oxo-2′,3′-dihydrospiro[cyclobulane-1,1′-pyrrolo[2,3-c]quinolin]-8′-yl)pyridin-3-yl)-4-(pentafluoro-16-sulfaneyl) benzenesulfonamide] showed an IC50 [1, 4] of 1 to 100 nM and an IC50 ([2]; ATP 20 μM) of 1 to 100 nM.

With Cc1ccc(N2CC3(C2)C(=O)N(C)c2cnc4cc(F)c(-c5cnc(OCCNC(C)C)c(NS(C)(=O)=O)c5)cc4c23)cc1 [Example 526, N-(5-(7′-Fluoro-3′-methyl-2′-oxo-1-(p-tolyl)-2′,3′-dihydrospiro[azetidine-3,1′-pyrrolo[2,3-c]quinolin]-8′-yl)-2-(2-(isopropylamino)ethoxy)pyridin-3-yl)methanesulfonamide hydrochloride] the IC50 [1, 3] was 1 to 100 nM and the IC50 ([2]; 20 μM ATP) was under 0.5 nM.

CC(C)NCCOc1ncc(-c2cc3c4c(cnc3cc2F)N(C)C(=O)C42CN(C(C)C)C2)cc1NS(=O)(=O)C(C)C [Example 485, N-(5-(7′-Fluoro-1-isopropyl-3′-methyl-2′-oxo-2′,3′-dihydrospiro[azetidine-3,1′-pyrrolo[2,3-c]quinolin]-8′-yl)-2-(2-(isopropylamino)ethoxy)pyridin-3-yl)propane-2-sulfonamide] gave an IC50 [1, 3] of 1 to 100 nM and an IC50 ([2]; 20 μM ATP) of 1 to 100 nM.

For CN(C)CCCOc1ncc(-c2ccc3ncc4c(c3c2)C2(CCC2)C(=O)N4C)cc1NS(=O)(=O)c1ccsc1 [Example 272, N-(2-(3-(Dimethylamino)propoxy)-5-(3′-methyl-2′-oxo-2′,3′-dihydrospiro [cyclobutane-1,1′-pyrrolo[2,3-c]quinolin]-8′-yl)pyridin-3-yl) thiophene-3-sulfonamide], the IC50 [1, 4] was 0.5 to 1 nM and the IC50 ([2]; ATP 20 μM) was 1 to 100 nM.

CN1C(=O)C2(CCC2)c2c1cnc1ccc(-c3cnc(OCCCN4CCCCC4)c(NS(=O)(=O)c4ccccc4)c3)cc21 [Example 132, N-(5-(3′-Methyl-2′-oxo-2′,3′-dihydrospiro[cyclobulane-1,1′-pyrrolo[2,3-c]quinolin]-8′-yl)-2-(3-(piperidin-1-yl)propoxy)pyridin-3-yl)benzenesulfonamide hydrochloride] showed an IC50 [1, 4] of 1 to 100 nM and an IC50 ([2]; ATP 20 μM) of 1 to 100 nM.

CC(C)NCCOc1ncc(-c2cc3c4c(cnc3cc2F)N(C)C(=O)C42CC(C)(C)C2)cc1NS(C)(=O)=O [Example 446, N-(5-(7′-Fluoro-3,3,3′-trimethyl-2′-oxo-2′,3′-dihydrospiro[cyclobutane-1,1′-pyrrolo[2,3-c]quinolin]-8′-yl)-2-(2-(isopropylamino)ethoxy)pyridin-3-yl)methanesulfonamide] was tested, and the IC50 [1, 3] was 1 to 100 nM and the IC50 ([2]; 20 μM ATP) was under 0.5 nM.

For CNC1CN(c2ncc(-c3cc4c5c(cnc4cc3F)N(C)C(=O)C53CCC3)cc2NS(=O)(=O)C2CC2)C1 [Example 333, N-(5-(7′-Fluoro-3′-methyl-2′-oxo-2′,3′-dihydrospiro [cyclobutane-1,1′-pyrrolo [2,3-c]quinolin]-8′-yl)-2-(3-(methylamino)azetidin-1-yl)pyridin-3-yl)cyclopropanesulfonamide], the IC50 [1, 4] was 0.5 to 1 nM and the IC50 ([2]; ATP 20 μM) was 0.5 to 1 nM.

In the case of CN(C)CCCOc1ncc(-c2ccc3ncc4c(c3c2)C2(CC2)C(=O)N4C)cc1NS(=O)(=O)c1ccc(F)c(C#N)c1 [Example 111, 3-Cyano-N-(2-(3-(dimethylamino)propoxy)-5-(3′-methyl-2′-oxo-2′,3′-dihydrospiro [cyclopropane-1,1′-pyrrolo[2,3-c]quinolin]-8′-yl)pyridin-3-yl)-4-fluorobenzenesulfonamide], the IC50 [1, 4] is reported as 1 to 100 nM and the IC50 ([2]; ATP 20 μM) is reported as under 0.5 nM.

For CN(C)CCCOc1ncc(-c2ccc3ncc4c(c3c2)C2(CCC2)C(=O)N4C)cc1NS(=O)(=O)N1CCNCC1 [Example 177, N-(2-(3-(Dimethylamino)propoxy)-5-(3′-methyl-2′-oxo-2′,3′-dihydrospiro [cyclobutane-1,1′-pyrrolo[2,3-c]quinolin]-8′-yl)pyridin-3-yl)piperazine-1-sulfonamide], the IC50 [1, 4] was 1 to 100 nM and the IC50 ([2]; ATP 20 μM) was under 0.5 nM.

COc1ccc([C@H]2C[C@]3(C2)C(=O)N(C)c2cnc4cc(F)c(-c5cnc(OCCNC(C)C)c(NS(C)(=O)=O)c5)cc4c23)cc1 [Example 420, cis-N-(5-(7′-Fluoro-3-(4-methoxyphenyl)-3-methyl-2′-oxo-2′,3′-dihydrospiro[cyclobulane-1,1′-pyrrolo[2,3-c]quinolin]-8′-yl)-2-(2-(isopropylamino)ethoxy)pyridin-3-yl)methanesulfonamide hydrochloride] was tested, and the IC50 [1, 3] was 1 to 100 nM and the IC50 ([2]; 20 μM ATP) was 1 to 100 nM.

For CN(C)CCCOc1ncc(-c2cc3c4c(cnc3cc2F)N(C)C(=O)C42CC2)cc1NS(=O)(=O)C1CC1 [Example 66, N-(2-(3-(Dimethylamino)propoxy)-5-(7′-fluoro-3′-methyl-2′-oxo-2′,3′-dihydrospiro[cyclopropane-1,1′-pyrrolo[2,3-c]quinolin]-8′-yl)pyridin-3-yl) cyclopropanesulfonamide], the IC50 [1, 4] was 1 to 100 nM and the IC50 ([2]; ATP 20 μM) was 1 to 100 nM.

CN(C)CCCOc1ncc(-c2ccc3ncc4c(c3c2)C2(CCC2)C(=O)N4C)cc1NS(=O)(=O)CC#N [Example 273, 1-Cyano-N-(2-(3-(dimethylamino)propoxy)-5-(3′-methyl-2′-oxo-2′,3′-dihydrospiro[cyclobutane-1,1′-pyrrolo[2,3-c]quinolin]-8′-yl)pyridin-3-yl)methanesulfonamide] gave an IC50 [1, 4] of 1 to 100 nM and an IC50 ([2]; ATP 20 μM) of under 0.5 nM.

In the case of CN(C)CCCOc1ccc(-c2ccc3ncc4c(c3c2)C2(CC2)C(=O)N4C)cc1NS(=O)(=O)c1cccc(F)c1 [Example 90], the IC50 [1, 4] is reported as 0.5 to 1 nM and the IC50 ([2]; ATP 20 μM) is reported as 1 to 100 nM.

With CN(C)CCCOc1ncc(-c2ccc3ncc4c(c3c2)C2(CCC2)C(=O)N4C)cc1NS(=O)(=O)C1CCC1 [Example 253, N-(2-(3-(Dimethylamino)propoxy)-5-(3′-methyl-2′-oxo-2′,3′-dihydrospiro [cyclobutane-1,1′-pyrrolo[2,3-c]quinolin]-8′-yl)pyridin-3-yl) cyclobutanesulfonamide] the IC50 [1, 4] was 1 to 100 nM and the IC50 ([2]; ATP 20 μM) was 1 to 100 nM.

Cc1ccc(S(=O)(=O)Nc2cc(-c3ccc4ncc5c(c4c3)C3(CCC3)C(=O)N5C)cnc2OCCCN2CCCCC2)cn1 [Example 142, 6-Methyl-N-(5-(3 methyl-2′-oxo-2′,3′-dihydrospiro[cyclobulane-1,1′-pyrrolo[2,3-c]quinolin]-8′-yl)-2-(3-(piperidin-1-yl)propoxy)pyridin-3-yl)pyridine-3-sulfonamide hydrochloride] was tested, and the IC50 [1, 4] was 1 to 100 nM and the IC50 ([2]; ATP 20 μM) was under 0.5 nM.

In the case of CN(C)CCCOc1ncc(-c2ccc3ncc4c(c3c2)C2(CC2)C(=O)N4C)cc1NS(=O)(=O)c1ccc(OC(F)F)cc1 [Example 126, 4-(Difluoromethoxy)-N-(2-(3-(dimethylamino)propoxy)-5-(3′-methyl-2′-oxo-2′,3′-dihydrospiro[cyclopropane-1,1′-pyrrolo[2,3-c]quinolin]-8′-yl)pyridin-3-yl)benzenesulfonamide], the IC50 [1, 4] is reported as 1 to 100 nM and the IC50 ([2]; ATP 20 μM) is reported as under 0.5 nM.

Cc1ccc(S(=O)(=O)Nc2cc(-c3ccc4ncc5c(c4c3)C3(CCC3)C(=O)N5C)cnc2N2CCC(N3CCCCC3)CC2)cc1 [Example 192, N-(2-(1,4-Bipiperidin]-1′-yl)-5-(3′-methyl-2′-oxo-2′,3′-dihydrospiro[cyclobulane-1,1′-pyrrolo[2,3-c]quinolin]-8′-yl)pyridin-3-yl)-4-methylbenzenesulfonamide hydrochloride] was tested, and the IC50 [1, 4] was 1 to 100 nM and the IC50 ([2]; ATP 20 μM) was 1 to 100 nM.

Work on CN(C)CCCOc1ncc(-c2cc3c4c(cnc3cc2F)N(C)C(=O)C42CCC2)cc1NS(=O)(=O)N(C)C [Example 290, 8′-{6-[3-(Dimethylamino)propoxy]-5-[(dimethylsulfamoyl)amino]pyridin-3-yl}-7′-fluoro-3′-methyl-2′,3′-dihydrospiro[cyclobutane-1,1′-pyrrolo[2,3-c]quinoline]-2′-one hydrochloride] yielded an IC50 [1, 4] of 1 to 100 nM and an IC50 ([2]; ATP 20 μM) of 0.5 to 1 nM.
